B1: cystatin A: known protein inhibitor of cathepsin B (protein, UniProt P01040 1-98, looked up)
Cystatin-A: MIPGGLSEAKPATPEIQEIVDKVKPQLEEKTNETYGKLEAVQYKTQVVAGTNYYIKVRAGDNKYMHLKVFKSLPGQNEDLVLTGYQVDKNKDDELTGF

Experiments:
[1] = tested on: protease activity of human serum; assay: Effect of E64 and CA-074 on the protease activities of human sera with and without treatment by immobilised papain (AFC method); type: biochemical; details: two normal human sera; for protease activity of sera after pre-treatment with immobilised papain, effect of inhibitor: pre-treated with immobilised papain; for small proteolytic activity of sera without pre-treatment, effect of inhibitor: without pre-treatment with immobilised papain
Description: FIG. 7 Effect of the inhibitors E64 and CA074 on the activity of purified cathepsin B or the protease activities of sera with and without treatment by immobilised papain. The tests were carried out with the AFC method.
(§1) The measurement of the fluorescence was done with 96-well microtiter plates by means of a fluorescence reader (for measurements with AMC: excitation at 355 nm, fluorescence at 450 nm) (for measurements with AFC: excitation at 400 nm, fluorescence at 508 nm).
(§2) In the AFC-method the assay run for the measurement of the activity was carried out in test samples at 37° C. The content of the test sample was transferred into the microtiter plate just before the measurement of the fluorescence.
The enzymatic activities of cathepsin B in small concentrations were measured of two “normal” human sera with and without pre-treatment with immobilised papain (FIG. 7).

[2] = molecular target: T1, cathepsin B (Bos taurus, UniProt P07688); assay: Inhibition of cathepsin B by cystatin A; type: biochemical, bovine; details: 700 nM cystatin A; 5 and 10 ng cathepsin B per assay run
T1 construct: cathepsin B (purified from the bovine spleen, 10 units/ml) was used in the test; from tissue; host or cells: bovine spleen
From the text: a1. Introduction: The activity measurement of cathepsin B is based on the cleavage of a dipeptide substrate • Z-Arg-Arg-fluorophore→Z-Arg-Arg+fluorophore (Z=protecting group, Arg=basic amino acid arginine)
as §1, §2
The inhibition of cathepsin B by the known inhibitor cystatin A was tested in vitro with two different cathepsin B concentrations.

Row | Molecule | protease activity of sera after pre-treatment with immobilised papain, effect of inhibitor [1] | small proteolytic activity of sera without pre-treatment, effect of inhibitor [1] | inhibition of cathepsin B [2]
1 | CCCNC(=O)[C@H]1O[C@@H]1C(=O)N[C@H](C(=O)N1CCC[C@H]1C(=O)O)[C@@H](C)CC [CA-074] | reduced this activity to the value which was measured in the samples not pre-treated | inhibited neither | –
2 | CC(C)C[C@H](NC(=O)[C@H]1O[C@@H]1C(=O)O)C(=O)NCCCCN=C(N)N [E64] | reduced this activity to the value which was measured in the samples not pre-treated | inhibited neither | –
3 | B1 | – | – | > 95%

From patent US20100267054A1, “Measuring The Activity Of Proteases” (priority 2007, published 2010)
